The experiment concerns the target T1, acetylcholinesterase from electric eel source (AChE, E.C. 3.1.1.7, Type V-S) (Electrophorus electricus, UniProt O42275).
T1 construct: Acetylcholinesterase enzyme extracted from electric eel was utilized; purchased Sigma-Aldrich (Steinheim, Germany) Type V-S; host or cells: electric eel tissue (extracted)
The experiment in a line: biochemical. Conditions: Ellman test, preincubation 15 min at 25 °C, pH 8.0, triplicate, IC50 ± SD, read-out: IC50 (enzymatic assay, acetylcholinesterase inhibition). As to the method: Lyophilized powder of acetylcholinesterase from electric eel source (AChE, E.C. 3.1.1.7, Type V-S, 1000 unit) was purchased from Sigma-Aldrich (Steinheim, Germany). 5,5′-Dithiobis-(2-nitrobenzoic acid, DTNB), potassium dihydrogen phosphate (KH2PO4), dipotassium hydrogen phosphate (K2HPO4), potassium hydroxide (KOH), sodium hydrogen carbonate (NaHCO3), and acetylthiocholine iodide were purchased from Fluka (Buchs, Switzerland).
According to the literature, the Ellman test was performed for assessment of the anticholinesterase activity of intended compounds in-vitro. […] After rapid and immediate mixing the change of absorption was measured at 412 nm.
The blank reading contained 3 mL buffer, 200 µL water, 100 µL DTNB and 20 µL substrate. The reaction rates were calculated, and the percent inhibition of test compounds was determined. Each concentration was analyzed in triplicate, and IC50 ± SD values were determined graphically from inhibition curves (log inhibitor concentration vs. percent of inhibition) ([22], [23]).
Acetylcholinesterase enzyme extracted from electric eel was utilized for assessment of the potency of intended compounds.
On the technique in general: Ellman's reagent forms a yellow product with free thiols.

SMILES strings stand for the structures.

The results in this text go back to publication PMC5149017, “Synthesis and Acetylcholinesterase Inhibitory Evaluation of 4-(1,3-Dioxoisoindolin-2-yl)-N-Phenyl Benzamide Derivatives as Potential Anti-Alzheimer Agents” (Iranian Journal of Pharmaceutical Research : IJPR, 2016).

T1 sequence (O42275 24-633): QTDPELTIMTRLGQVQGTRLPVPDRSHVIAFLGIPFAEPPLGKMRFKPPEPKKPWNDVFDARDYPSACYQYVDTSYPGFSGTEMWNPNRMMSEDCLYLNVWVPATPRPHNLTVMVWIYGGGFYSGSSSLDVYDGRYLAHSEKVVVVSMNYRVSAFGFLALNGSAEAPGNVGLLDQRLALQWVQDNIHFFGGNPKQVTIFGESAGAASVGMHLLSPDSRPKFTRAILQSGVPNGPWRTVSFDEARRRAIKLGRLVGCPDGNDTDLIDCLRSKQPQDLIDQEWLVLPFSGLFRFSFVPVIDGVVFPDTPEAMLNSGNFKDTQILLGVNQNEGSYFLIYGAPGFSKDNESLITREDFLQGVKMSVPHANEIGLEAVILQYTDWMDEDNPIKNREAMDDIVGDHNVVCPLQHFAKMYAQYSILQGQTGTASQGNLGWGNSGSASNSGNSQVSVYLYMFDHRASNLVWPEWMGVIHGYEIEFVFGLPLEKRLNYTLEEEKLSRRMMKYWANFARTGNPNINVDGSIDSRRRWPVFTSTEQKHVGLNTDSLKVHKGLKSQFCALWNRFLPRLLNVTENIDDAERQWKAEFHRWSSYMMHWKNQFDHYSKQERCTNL

`O=C(Nc1cccc(Cl)c1)c1ccc(N2C(=O)c3ccccc3C2=O)cc1` [Compound 4a, N-(3-Chlorophenyl)-4-(1,3-dioxoisoindolin-2-yl)benzamide]: the IC50 was over 250 µM.

In the case of `O=C(Nc1ccc(Cl)cc1)c1ccc(N2C(=O)c3ccccc3C2=O)cc1` [Compound 4b, N-(4-Chlorophenyl)-4-(1,3-dioxoisoindolin-2-yl)benzamide], the 50% inhibitory concentration (IC50) is over 250 µM.

Turning to `O=C(Nc1ccccc1F)c1ccc(N2C(=O)c3ccccc3C2=O)cc1` [Compound 4c, 4-(1,3-Dioxoisoindolin-2-yl)-N-(2-fluorophenyl)benzamide], the IC50 is over 250 µM.

In the case of `O=C(Nc1cccc(F)c1)c1ccc(N2C(=O)c3ccccc3C2=O)cc1` [Compound 4d, 4-(1,3-Dioxoisoindolin-2-yl)-N-(3-fluorophenyl)benzamide], the IC50 was over 250 µM.

As to `COc1cccc(NC(=O)c2ccc(N3C(=O)c4ccccc4C3=O)cc2)c1` [Compound 4e, 4-(1,3-Dioxoisoindolin-2-yl)-N-(3-methoxyphenyl)benzamide], the IC50 was over 250 µM.

`COc1ccc(NC(=O)c2ccc(N3C(=O)c4ccccc4C3=O)cc2)cc1` [Compound 4f, 4-(1,3-Dioxoisoindolin-2-yl)-N-(4-methoxyphenyl)benzamide]: the IC50 is over 250 µM.

In the case of `O=C(Nc1ccccc1[N+](=O)[O-])c1ccc(N2C(=O)c3ccccc3C2=O)cc1` [Compound 4g, 4-(1,3-Dioxoisoindolin-2-yl)-N-(2-nitrophenyl)benzamide], the half-maximal inhibitory concentration (IC50) was found to be 1.1 ± 0.25 µM.

On to `O=C(Nc1ccc([N+](=O)[O-])cc1)c1ccc(N2C(=O)c3ccccc3C2=O)cc1` [Compound 4h, 4-(1,3-Dioxoisoindolin-2-yl)-N-(4-nitrophenyl)benzamide], for which the IC50 was over 250 µM.

Broadly, the IC50 is the concentration needed to halve the response being measured.
